In data set [1] the test system is NCI-H1975. Kind of data set: Cytotoxicity against human NCI-H1975 assessed as reduction in cell viability measured after 72 hrs by MTT assay. Format: functional, cell-based. The settings on record: NCI-H1975, 72 h. A general note: Tetrazolium assays rely on reduction of a dye to a coloured formazan, in cell work by metabolically active cells.
Data set [2] has as its system LoVo. As to the kind of experiment: Cytotoxicity against human LoVo assessed as reduction in cell viability measured after 72 hrs by MTT assay. In kind it is functional, cell-based.
In data set [3] the test system is HeLa. As to the kind of experiment: Cytotoxicity against human Hela assessed as reduction in cell viability measured after 72 hrs by MTT assay. In kind it is functional, cell-based.
Data set [4] deals with HCT-116. Kind of data set: Cytotoxicity against human HCT-116 assessed as reduction in cell viability measured after 72 hrs by MTT assay. In kind it is functional, cell-based. Particulars: HCT-116, 72 h.
In data set [5] the test system is COLO 205. As to the kind of experiment: Cytotoxicity against human COLO 205 assessed as reduction in cell viability measured after 72 hrs by MTT assay. Format: functional, cell-based. The settings on record: COLO 205, 72 h.
Data set [6] concerns A549. Kind of data set: Cytotoxicity against human A549 assessed as reduction in cell viability measured after 72 hrs by MTT assay. Format: functional, cell-based. Particulars: A549, 72 h.
Data set [7] can be described thus: Toxicity in nude BALB/c mouse xenografted with human HCT-116 cells assessed as reduction in body weight at 20 mg/kg, po dosed once the every 2 day for upto 24 days. Particulars: in vivo, time <=24 day. In kind it is organism-based. A general note: A xenograft is tissue or cells of one species grown in another, often human tumour cells in immunodeficient mice.
Data set [8] has as its system Raji. As to the kind of experiment: Antitumor activity against NPG mouse xenografted with human Raji cell assessed as tumor growth inhibition at 5 mg/kg, ip measured after 5 day. Format: functional. The settings on record: 120 h, read-out: TGI.
A short description of data set [9]: Toxicity in NPG mouse xenografted with human Raji cells assessed as body weight loss at 5 mg/kg, ip measured after 5 day. In kind it is organism-based. Particulars: in vivo, 120 h.
Data set [10] in a line: Toxicity in NPG mouse xenografted with human Raji cells assessed as body weight loss at 5 mg/kg, ip measured on the 1 day. Format: organism-based. Particulars: in vivo, 24 h.
In data set [11] the test system is Raji. As to the kind of experiment: Cytotoxicity against human Raji assessed as reduction in cell viability measured after 72 hrs by MTT assay. In kind it is functional, cell-based.
Data set [12] concerns HCT-116. Kind of data set: Induction of apoptosis in human HCT-116 cells assessed as early apoptotic cells level at 0.001 uM incubated for 24 hrs by Annexin V-FITC/PI staining based flow cytometry (reference value: 0.17%). In kind it is functional. On the technique in general: In flow cytometry, cells or beads pass a laser one at a time.
Data set [13] deals with HCT-116. Kind of data set: Induction of apoptosis in human HCT-116 cells assessed as late apoptotic cells level at 0.001 uM incubated for 24 hrs by Annexin V-FITC/PI staining based flow cytometry (reference value: 0.07%). In kind it is functional.
For data set [14], the system named is HCT-116. Kind of data set: Inhibition of colony formation in human HCT-116 cells at 1 nM incubated for 12 days by crystal violet dye based assay. Format: functional, cell-based. Particulars: time 12.0 day.
A short description of data set [15]: Solubility of compound in phosphate buffer at pH 7.4 incubated for 24 hrs under shaking condition by HPLC analysis. Format: physicochemical.
Data set [16] can be described thus: Solubility of compound in water incubated for 24 hrs under shaking condition by HPLC analysis. Format: physicochemical.
Data set [17] deals with HCT-116. Kind of data set: Induction of apoptosis in human HCT-116 cells assessed as early apoptotic cells level at 1 uM incubated for 24 hrs by Annexin V-FITC/PI staining based flow cytometry (reference value: 0.17%). Format: functional.
Data set [18] relates to HCT-116. As to the kind of experiment: Induction of apoptosis in human HCT-116 cells assessed as late apoptotic cells level at 1 uM incubated for 24 hrs by Annexin V-FITC/PI staining based flow cytometry (reference value: 0.07%). Format: functional.
Data set [19] has as its system HCT-116. As to the kind of experiment: Induction of apoptosis in human HCT-116 cells assessed as late apoptotic cells level at 0.03 uM incubated for 24 hrs by Annexin V-FITC/PI staining based flow cytometry (reference value: 0.07%). Format: functional.
In data set [20] the test system is HCT-116. As to the kind of experiment: Induction of apoptosis in human HCT-116 cells assessed as early apoptotic cells level at 0.03 uM incubated for 24 hrs by Annexin V-FITC/PI staining based flow cytometry (reference value: 0.17%). In kind it is functional.
Data set [21] is described as follows: Solubility of compound in phosphate buffer at pH 4.5 incubated for 24 hrs under shaking condition by HPLC analysis. In kind it is physicochemical.

12 molecules from ChEMBL document CHEMBL4706505, “F10, a new camptothecin derivative, was identified as a new orally-bioavailable, potent antitumor agent” (Eur J Med Chem, 2020) can be followed below.

Calls of active or inactive are those of the source. No cut-off for these calls is given here. Bounds are passed on as bounds.

For `CCN(CC)C(=O)COc1ccc2nc3c(cc2c1)Cn1c-3cc2c(c1=O)COC(=O)[C@]2(O)CC`, the IC50 (usually the concentration that inhibits the measured activity by half) in [1] was determined as 1960 nM; in [2], 933 nM; in data set [3], 1010 nM; in data set [4], 101 nM; in data set [5] it was 1520 nM; in data set [6], 261 nM.
Consider `CC[C@@]1(O)C(=O)OCc2c1cc1n(c2=O)Cc2cc3cc(OCC(=O)N4CCCC4)ccc3nc2-1`, for which the IC50 was found to be 2810 nM in data set [1]; 880 nM in data set [2]; 1370 nM in data set [3]; 81 nM in [4]; 2830 nM in data set [5]; 80 nM in data set [6].
As for `CC[C@@]1(O)C(=O)OCc2c1cc1n(c2=O)Cc2cc3cc(O)ccc3nc2-1` [HYDROXYCAMPTOTHECIN], the IC50 was found to be 330 nM in data set [2], 21 nM in [4] and 80 nM in data set [6].
In the case of `CC[C@@]1(O)C(=O)OCc2c1cc1n(c2=O)Cc2cc3cc(OCC(=O)NCCN(C)C)ccc3nc2-1`, the IC50 in data set [1], in [2], in data set [3], in data set [4], in [5] and in data set [6] was above 10000 nM each time.
As for `CC[C@@]1(O)C(=O)OCc2c1cc1n(c2=O)Cc2cc3cc(OCC(=O)N4CCCCC4)ccc3nc2-1`, the IC50 in data set [1] came to 1380 nM; in data set [2] it was 272 nM; in data set [3], 380 nM; in [4], 17 nM; in data set [5] it was 540 nM; in data set [6], 55 nM.
As to `CCc1c2c(nc3ccc(OC(=O)N4CCC(N5CCCCC5)CC4)cc13)-c1cc3c(c(=O)n1C2)COC(=O)[C@]3(O)CC.Cl`, the figures for the Activity result in data set [7], in data set [9] and in data set [10] were “Toxic”, 23.5 g and 24.2 g, respectively. Also, the inhibition in vivo at 5 mg/kg in [8] amounted to 7.1%.
With `CCN(CC)CCNC(=O)COc1ccc2nc3c(cc2c1)Cn1c-3cc2c(c1=O)COC(=O)[C@]2(O)CC`, the IC50 in data set [1], in data set [2], in data set [3], in data set [4], in data set [5] and in [6] was above 10000 nM each time.
In the case of `CC[C@@]1(O)C(=O)OCc2c1cc1n(c2=O)Cc2cc3cc(OCC(=O)N(C)CCN(C)C)ccc3nc2-1`, the IC50 in data set [1], in data set [2], in data set [3], in [4], in [5] and in data set [6] was above 10000 nM in each case.
Turning to `CC[C@@]1(O)C(=O)OCc2c1cc1n(c2=O)Cc2cc3cc(OCC(=O)N4CCN(C)CC4)ccc3nc2-1`, the IC50 was above 10000 nM in [1]; above 10000 nM in data set [2]; 2570 nM in data set [3]; above 10000 nM in [4]; above 10000 nM in data set [5]; above 10000 nM in data set [6].
As for `CCc1c2c(nc3ccc(OCC(=O)N4CCCC4)cc13)-c1cc3c(c(=O)n1C2)COC(=O)[C@]3(O)CC`, the IC50 was determined as 630 nM in [1]; 181 nM in [2]; 350 nM in data set [3]; 6 nM in data set [11]; 12 nM in data set [4]; 250 nM in data set [5]. Besides, the IC50 in data set [6] was determined as 37 nM.
In the case of `CC[C@@]1(O)C(=O)OCc2c1cc1n(c2=O)Cc2cc3cc(OCC(=O)N4CCC(N(C)C)CC4)ccc3nc2-1`, the IC50 in [1], in data set [2], in data set [3], in [4], in [5] and in data set [6] was above 10000 nM in each case.
On to `CCc1c2c(nc3ccc(O)cc13)-c1cc3c(c(=O)n1C2)COC(=O)[C@]3(O)CC` [7-ETHYL-10-HYDROXYCAMPTOTHECIN], for which the IC50 worked out at 810 nM in data set [1]; 301 nM in data set [2]; 145 nM in data set [3]; 5 nM in [11]; 10 nM in data set [4]; 220 nM in data set [5]. Besides, the IC50 in [6] is 18 nM. The Activity in [12] is 2.91%; in data set [13], 2.81%; in data set [17], 24.42%; in data set [18], 7.12%; in data set [19], 8.29%; in [20] it was 3.11%. Further, the inhibition entry in data set [14] was “Active”. The solubility (thermodynamic) at 24 h in [15], in data set [16] and in data set [21] was below 0.25 µg/mL in each case.
